# Experiments:
# [1] = IV Admixture stability in LR at approximately 2.4 mg/mL after reconstitution; format: physicochemical; details: for pH drop: from zero to two hours
# Experimental: To analyze DOXO-EMCH's behavior in solution, a reversed-phase (RP) HPLC method for quantitation of DOXO-EMCH and various impurities and degradation products was utilized. Samples (1.0 μL injection volume) were assayed on an HPLC system fitted with a Phenomenex Gemini C18 column 100×2.0 mm, 3 μm at a flow rate of 0.3 mL/min. The mobile phase used was an acetate/acetonitrile gradient. The degradation product EMCH could not be detected using the above HPLC method, and was therefore determined using a liquid chromatography-mass spectrometry (LC-MS) method.
# IV Admixture stability studies were designed to use the reconstitution diluent found suitable in part 1 following the procedure outlined below. Briefly, to prepare an IV Admixture solution containing approximately 2.4 mg/mL DOXO-EMCH, the required volume for reconstitution was withdrawn from the IV infusion solution bag intended for final administration. The required volume for reconstitution of the respective diluent was measured and transferred into a vial of lyophilized DOXO-EMCH. The vial of DOXO-EMCH and diluent was gently swirled to dissolve the vial contents and obtain a homogeneous mixture. The reconstituted solution of drug product was inspected to ensure that the drug was completely dissolved and that no foreign matter was present. This procedure was repeated for the total number of vials required to prepare the calculated dose of DOXO-EMCH in IV infusion solution. The required volume of reconstituted DOXO-EMCH solution was then withdrawn from the drug product vials using a suitably sized syringe, and injected into the IV infution solution bag. The contents of the IV infusion solution bag were thoroughly mixed to obtain a homogeneous mixture. The IV infusion bag was then stored at room temperature and protected from light.
# The IV Admixture study was performed by first removing 3 vials of 200 mg lyophilized DOXO-EMCH drug product from storage at −20° C. and allowing the vials to come to room temperature. […] Each of the vials was reconstituted as described above. The required volume of the reconstitution diluent (20 mL) was drawn into an appropriate plastic syringe using a needle and injected through the stopper of each vial. The reconstituted vial was then swirled and visually inspected for complete reconstitution to form a clear, homogeneous solution. The time required to form a clear, homogeneous solution was recorded. The required volume (20.0 mL of a 10 mg/mL constituted solution) was transferred from each reconstituted vial into the 250 mL IV Admixture solution as described above. Briefly, the required volume (20.0 mL of a 10 mg/mL constituted solution) was withdrawn using an appropriate plastic syringe and needle, the required volume of constituted drug product was transferred from each of three vials into the 250 mL IV Admixture using an appropriate plastic syringe and needle, and the contents of the IV Admixture were completely mixed to obtain a homogeneous mixture at a target concentration of approximately 2.4 mg/mL. The IV bag was weighed prior to injection of constituted drug product. […] solution, diluting with chilled HPLC method diluent to achieve a target concentration of 0.24 mg/mL, and injecting into the HPLC. Duplicate injections were made for each time point. The pH of the IV Admixture and sample prepared for HPLC analysis were also measured at each time point. The empty IV bag was weighed at study completion to calculate the actual IV Admixture solution volume in each bag.
# The reconstituted solution was evaluated for color, clarity, and absence of insoluble material in the vial after every 30 seconds of mixing. Following addition of the reconstituted drug product solution to the IV bag, the resulting IV Admixture was evaluated for color, clarity, and absence of any insoluble material immediately after mixing and at each analytical time point. The amount (area %) of the degradation product doxorubicin was determined at each time point. […]
# [2] = system: mice; details: acute and repeat-dose; cited from earlier work
# [3] = system: dogs; details: acute and repeat-dose; cited from earlier work
# [4] = reconstituted in 50:50 ethanol:water, diluted in LR, two hour time point, average of two studies
# [5] = reconstituted in LR, diluted in LR to ~2.4 mg/mL, Study #1, ambient temperature, 0 min
# [6] = reconstituted in LR, diluted in LR to ~2.4 mg/mL, Study #1, ambient temperature, 30 min
# [7] = reconstituted in LR, diluted in LR to ~2.4 mg/mL, Study #1, ambient temperature, 60 min
# [8] = reconstituted in LR, diluted in LR to ~2.4 mg/mL, Study #1, ambient temperature, 120 min
# [9] = reconstituted in LR, diluted in LR to ~2.4 mg/mL, Study #1, ambient temperature, 150 min
# [10] = reconstituted in LR, diluted in LR to ~2.4 mg/mL, Study #1, ambient temperature, 240 min
# [11] = reconstituted in LR, diluted in LR to ~2.4 mg/mL, Study #2, ambient temperature, 0 min
# [12] = reconstituted in LR, diluted in LR to ~2.4 mg/mL, Study #2, ambient temperature, 30 min
# [13] = reconstituted in LR, diluted in LR to ~2.4 mg/mL, Study #2, ambient temperature, 60 min
# [14] = reconstituted in LR, diluted in LR to ~2.4 mg/mL, Study #2, ambient temperature, 90 min
# [15] = reconstituted in LR, diluted in LR to ~2.4 mg/mL, Study #2, ambient temperature, 120 min
# [16] = reconstituted in LR, diluted in LR to ~2.4 mg/mL, Study #2, ambient temperature, 150 min
# [17] = reconstituted in SWFI (~10 mg/mL), diluted in LR IV bag to ~2.4 mg/mL, ambient temperature, 30 min
# [18] = reconstituted in SWFI (~10 mg/mL), diluted in LR IV bag to ~2.4 mg/mL, ambient temperature, 60 min
# [19] = reconstituted in SWFI (~10 mg/mL), diluted in LR IV bag to ~2.4 mg/mL, ambient temperature, 150 min
# [20] = reconstituted in SWFI (~10 mg/mL), diluted in LR IV bag to ~2.4 mg/mL, ambient temperature, 240 min
# [21] = reconstituted in ethanol:water, diluted in LR to ~2.4 mg/mL, Study #1, ambient temperature, 0 min
# [22] = reconstituted in ethanol:water, diluted in LR to ~2.4 mg/mL, Study #1, ambient temperature, 30 min
# [23] = reconstituted in ethanol:water, diluted in LR to ~2.4 mg/mL, Study #1, ambient temperature, 60 min
# [24] = reconstituted in ethanol:water, diluted in LR to ~2.4 mg/mL, Study #1, ambient temperature, 90 min
# [25] = reconstituted in ethanol:water, diluted in LR to ~2.4 mg/mL, Study #1, ambient temperature, 120 min
# [26] = reconstituted in ethanol:water, diluted in LR to ~2.4 mg/mL, Study #1, ambient temperature, 150 min
# [27] = reconstituted in ethanol:water, diluted in LR to ~2.4 mg/mL, Study #2, ambient temperature, 0 min
# [28] = reconstituted in ethanol:water, diluted in LR to ~2.4 mg/mL, Study #2, ambient temperature, 30 min
# [29] = reconstituted in ethanol:water, diluted in LR to ~2.4 mg/mL, Study #2, ambient temperature, 60 min
# [30] = reconstituted in ethanol:water, diluted in LR to ~2.4 mg/mL, Study #2, ambient temperature, 120 min
# [31] = reconstituted in ethanol:water, diluted in LR to ~2.4 mg/mL, Study #2, ambient temperature, 150 min
# [32] = reconstituted in ethanol:water, diluted in LR to ~2.4 mg/mL, Study #2, ambient temperature, 240 min
smiles,measurement,setting,value
COc1cccc2c1C(=O)c1c(O)c3c(c(O)c1C2=O)C[C@@](O)(/C(CO)=N/NC(=O)CCCCCN1C(=O)C=CC1=O)C[C@@H]3O[C@H]1C[C@H](N)[C@H](O)[C@H](C)O1.Cl [DOXO-EMCH],stability of IV solutions in LR,"[1]; drug product reconstituted in any of SWFI, LR, 50:50 ethanol/water, based on accumulation of doxorubicin",relatively stable for two hours or more
same,pH drop,"[1]; reconstituted in 50:50 ethanol:water, diluted in LR, two studies",0.3-0.4 units
same,average doxorubicin content,[1]; [4],2.0%
same,average pH,[1]; [4],5.9
same,Doxorubicin,[1]; [5],1.10 Area %
same,pH,[1]; [5],5.99
same,Doxorubicin,[1]; [6],1.28 Area %
same,pH,[1]; [6],5.87
same,Doxorubicin,[1]; [7],1.74 Area %
same,pH,[1]; [7],5.85
same,Doxorubicin,[1]; [8],2.24 Area %
same,pH,[1]; [8],5.76
same,Doxorubicin,[1]; [9],2.93 Area %
same,pH,[1]; [9],5.75
same,Doxorubicin,[1]; [10],3.80 Area %
same,pH,[1]; [10],5.67
same,Doxorubicin,[1]; [11],1.03 Area %
same,pH,[1]; [11],6.10
same,Doxorubicin,[1]; [12],1.04 Area %
same,pH,[1]; [12],5.98
same,Doxorubicin,[1]; [13],1.68 Area %
same,pH,[1]; [13],5.94
same,Doxorubicin,[1]; [14],1.67 Area %
same,pH,[1]; [14],5.89
same,Doxorubicin,[1]; [15],2.53 Area %
same,pH,[1]; [15],5.79
same,Doxorubicin,[1]; [16],2.50 Area %
same,pH,[1]; [16],5.77
same,pH drop,"[1]; reconstituted in LR, diluted in LR, two studies",0.2-0.3 units
same,average pH,"[1]; reconstituted in LR, diluted in LR, two hour time point, average of two studies",5.8
same,Doxorubicin,"[1]; reconstituted in SWFI (~10 mg/mL), diluted in LR IV bag to ~2.4 mg/mL, ambient temperature, 0 min",1.23 Area %
same,Doxorubicin,[1]; [17],1.40 Area %
same,pH,[1]; [17],5.98
same,Doxorubicin,[1]; [18],1.88 Area %
same,pH,[1]; [18],5.84
same,Doxorubicin,[1]; [19],3.23 Area %
same,pH,[1]; [19],5.73
same,Doxorubicin,[1]; [20],4.23 Area %
same,pH,[1]; [20],5.62
same,pH drop,"[1]; reconstituted in SWFI, diluted in LR",about 0.4 units
same,Doxorubicin,[1]; [21],1.0 Area %
same,pH,[1]; [21],6.22
same,Doxorubicin,[1]; [22],1.1 Area %
same,pH,[1]; [22],6.04
same,Doxorubicin,[1]; [23],1.3 Area %
same,pH,[1]; [23],5.95
same,Doxorubicin,[1]; [24],1.7 Area %
same,pH,[1]; [24],5.89
same,Doxorubicin,[1]; [25],1.9 Area %
same,pH,[1]; [25],5.83
same,Doxorubicin,[1]; [26],2.3 Area %
same,pH,[1]; [26],5.82
same,Doxorubicin,[1]; [27],1.1 Area %
same,pH,[1]; [27],6.19
same,Doxorubicin,[1]; [28],1.3 Area %
same,pH,[1]; [28],6.05
same,Doxorubicin,[1]; [29],1.5 Area %
same,pH,[1]; [29],5.99
same,Doxorubicin,[1]; [30],2.1 Area %
same,pH,[1]; [30],5.89
same,Doxorubicin,[1]; [31],2.3 Area %
same,pH,[1]; [31],5.87
same,Doxorubicin,[1]; [32],3.4 Area %
same,pH,[1]; [32],5.80
same,tolerance compared to doxorubicin,[2],significantly higher tolerance
same,tolerance compared to doxorubicin,[3],significantly higher tolerance
